Measurements reported in patent US20250332264A1, “GhR-BINDING PEPTIDE AND COMPOSITION COMPRISING SAME” (priority 2021, published 2025).
Starred links: 1 amine or outer side, 2 acyl side, 3 side chain; linkers in the order of their positions; H or OH if unused. Positions of bridges follow the written chain, without caps; N, C: chain ends. Non-standard residues stand in square brackets, D forms with d. Residues, ends and D or L forms follow the SMILES beside them. Groups on a side chain read outwards from the residue. *: point of attachment. X8 = NC(=O)[C@H](CCCCN*)NC(=O)COCCOCCNC(=O)COCCOCCNC(=O)CC[C@H](NC(=O)CC[C@H](NC(=O)CCCCCCCCCCCCCC(=O)O)C(=O)O)C(=O)O; X3 = NC(=O)[C@H](CCCCN*)NC(=O)CC[C@H](NC(=O)CC[C@H](NC(=O)CCCCCCCCCCCCCCC(=O)O)C(=O)O)C(=O)O; X6 = NC(=O)[C@H](CCCCN*)NC(=O)CC[C@H](NC(=O)CC[C@H](NC(=O)CCCCCCCCCCCCCC(=O)O)C(=O)O)C(=O)O; X10 = NC(=O)[C@H](CCCCN*)NC(=O)CC[C@H](NC(=O)CC[C@H](NC(=O)CCCc1ccc(I)cc1)C(=O)O)C(=O)O; Trp(1-CH2CO) = O=C([C@H](Cc1cn(CC(=O)[*:3])c2ccccc12)N[*:1])[*:2]; Trp(5-OMe) = COc1ccc2[nH]cc(C[C@H](N)C(=O)O)c2c1; Butanoyl(4-(4-I-phenyl)) = O=C(CCCc1ccc(I)cc1)*; Trp(5-OH) = N[C@@H](Cc1c[nH]c2ccc(O)cc12)C(=O)O; Phe(4-COOH) = N[C@@H](Cc1ccc(C(=O)O)cc1)C(=O)O; Piperazinyl(4-CH2COOH) = O=C(O)CN1CCN(*)CC1; γGlu = O=C(O)[C@H](CCC(=O)[*:2])N[*:1]; Ahp(2) = CCCCC[C@H](N)C(=O)O; NMeK = CN[C@@H](CCCCN)C(=O)O; Aib = CC(C)(N)C(=O)O; CO = O=C([*:1])[*:2]

Target: T1, Recombinant human GhR-Fc protein (Homo sapiens, UniProt P10912)
T1 construct: purchased R&D Systems
T1 sequence (P10912 with tags, fused parts or gaps limits assumed): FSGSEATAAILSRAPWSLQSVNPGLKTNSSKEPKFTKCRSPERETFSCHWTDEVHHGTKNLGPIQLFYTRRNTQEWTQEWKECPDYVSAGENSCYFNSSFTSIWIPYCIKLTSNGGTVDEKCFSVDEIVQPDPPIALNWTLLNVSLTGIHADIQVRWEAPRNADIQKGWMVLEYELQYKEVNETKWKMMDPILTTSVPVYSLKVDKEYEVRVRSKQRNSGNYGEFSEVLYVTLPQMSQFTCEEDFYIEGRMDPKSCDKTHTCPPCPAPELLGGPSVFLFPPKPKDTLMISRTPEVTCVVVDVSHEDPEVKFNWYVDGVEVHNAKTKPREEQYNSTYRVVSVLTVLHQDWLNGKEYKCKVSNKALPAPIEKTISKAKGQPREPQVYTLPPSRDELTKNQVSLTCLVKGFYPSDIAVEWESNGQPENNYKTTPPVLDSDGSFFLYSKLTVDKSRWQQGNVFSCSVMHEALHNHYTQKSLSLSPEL
Assay: Binding activity of hGhR binding peptide by surface plasmon resonance (SPR), Biacore T200, single-cycle kinetics
Conditions: human GhR-Fc immobilized on CM5 chip, KD calculated from ka and kd
Description: SPR assay was performed using Biacore T200 (cytiva: Former GE Healthcare). After the equilibration of Series S Sensor Chip CM5 (produced by cytiva: Former GE Healthcare) with Running Buffer (HBS-EP with 1% (v/v) DMSO), an EDC/NHS mixture was injected at a flow rate of 10 μL/min for 7 minutes to thereby activate the functional groups on sensor chip. Recombinant human GhR-Fc protein (R&D Systems) in 10 mM Acetate (pH4.0) was injected immobilized to at a flow rate of 5 μL/min. It took 7 minutes to immobilize the GhR on the substrate surfaces of the sensor chip. Then Ethanolamine was injected at a flow rate of 10 μL/min for 7 minutes. 1M Ethanolamine (aq.) was injected at a flow rate of 10 μL/min for 420 seconds for capping.
Using these Peptide Samples, kinetics of peptides against human GhR-Fc protein were measured. The method adopted for sample measurement was a single-cycle kinetics method. The analysis was conducted using the evaluation software provided with Biacore T200. A DMSO correction curve obtained by solvent correction measurements was applied for the analysis. Kinetics fitting was done on the difference data obtained by subtracting the baseline data from sample measurement data. KD values were calculated based on the association rate constant (ka) and dissociation rate constant (kd).
Furthermore, “obs. m/z [M+2H]2+” indicates the ESI-MS(+) observed value. Unless otherwise specified, this is bivalent ([M+2H]^2+).

SMILES | Kd [nM]
CC(C)[C@@H]1NC(=O)[C@H](C(C)C)NC(=O)[C@@H]2CCCCNC(=O)Cn3cc(c4ccccc43)C[C@H](NC(=O)[C@H](CC(N)=O)NC(=O)[C@H](CO)NC1=O)C(=O)N[C@@H](Cc1ccc(O)cc1)C(=O)N[C@@H](CCCCNC(=O)N1CCN(CC(=O)O)CC1)C(=O)N[C@@H](Cc1c[nH]c3ccc(O)cc13)C(=O)NC(C)(C)C(=O)N[C@@H](C(C)C)C(=O)N[C@H](C(=O)NCC(=O)N1CCC[C@H]1C(=O)N[C@H](CO)C(=O)N[C@H](CO)C(=O)N[C@H](CO)C(=O)NCCCC[C@H](NC(=O)CC[C@H](NC(=O)CC[C@H](NC(=O)CCCCCCCCCCCCCCC(=O)O)C(=O)O)C(=O)O)C(N)=O)CSCC(=O)N[C@@H](Cc1ccc(O)cc1)C(=O)N2C [Compound 28] ({CH2CO}-Y[NMeK]VVSN[Trp(1-CH2CO)]YK([CO-Piperazinyl(4-CH2COOH)])[Trp(5-OH)][Aib]VCGP[dS][dS][dS]-X3; lactam 2-7; thioether N-13) | 2.71
CCCCC[C@@H]1NC(=O)[C@H](Cc2ccc(C(=O)O)cc2)NC(=O)[C@@H]2Cc3cn(c4ccccc34)CC(=O)NCCCC[C@@H](C(=O)N[C@@H](C(C)C)C(=O)N[C@@H](C(C)C)C(=O)N[C@@H](CO)C(=O)N[C@@H](CC(N)=O)C(=O)N2)N(C)C(=O)[C@H](Cc2ccc(C(=O)O)cc2)NC(=O)CSC[C@@H](C(=O)NCCCC[C@H](NC(=O)CC[C@H](NC(=O)CC[C@H](NC(=O)CCCc2ccc(I)cc2)C(=O)O)C(=O)O)C(N)=O)NC(=O)[C@H](C(C)C)NC(=O)C(C)(C)NC(=O)[C@H](Cc2c[nH]c3ccc(O)cc23)NC1=O [Compound 6] ({CH2CO}-[Phe(4-COOH)][NMeK]VVSN[Trp(1-CH2CO)][Phe(4-COOH)][Ahp(2)][Trp(5-OH)][Aib]VC-X10; lactam 2-7; thioether N-13) | 1.82
COc1ccc2[nH]cc(C[C@@H]3NC(=O)[C@H](CC(N)=O)NC(=O)[C@H](CO)NC(=O)[C@H](C(C)C)NC(=O)[C@H](C(C)C)NC(=O)[C@H](CCCCNC(=O)CC[C@H](NC(=O)CC[C@H](NC(=O)CCCc4ccc(I)cc4)C(=O)O)C(=O)O)N(C)C(=O)[C@H](Cc4ccc(O)cc4)NC(=O)CSC[C@@H](C(=O)NCC(=O)N4CCC[C@H]4C(=O)N[C@H](CO)C(=O)N[C@H](CO)C(=O)N[C@H](CO)C(N)=O)NC(=O)[C@H](C(C)C)NC(=O)C(C)(C)NC(=O)[C@H](Cc4c[nH]c5ccc(O)cc45)NC(=O)[C@H](CCCCNC(=O)N4CCN(CC(=O)O)CC4)NC(=O)[C@H](Cc4ccc(C(=O)O)cc4)NC3=O)c2c1 [Compound 49] ({CH2CO}-Y[NMeK]([γGlu-γGlu-Butanoyl(4-(4-I-phenyl))])VVSN[Trp(5-OMe)][Phe(4-COOH)]K([CO-Piperazinyl(4-CH2COOH)])[Trp(5-OH)][Aib]VCGP[dS][dS][dS]-NH2; thioether N-13) | 6.31
CC(C)[C@@H]1NC(=O)[C@H](C(C)C)NC(=O)[C@@H]2CCCCNC(=O)Cn3cc(c4ccccc43)C[C@H](NC(=O)[C@H](CC(N)=O)NC(=O)[C@H](CO)NC1=O)C(=O)N[C@@H](Cc1ccc(C(=O)O)cc1)C(=O)N[C@@H](CCCCN)C(=O)N[C@@H](Cc1c[nH]c3ccc(O)cc13)C(=O)NC(C)(C)C(=O)N[C@@H](C(C)C)C(=O)N[C@H](C(=O)NCCCC[C@H](NC(=O)CC[C@H](NC(=O)CC[C@H](NC(=O)CCCCCCCCCCCCCC(=O)O)C(=O)O)C(=O)O)C(N)=O)CSCC(=O)N[C@@H](Cc1ccc(C(=O)O)cc1)C(=O)N2C [Compound 60] ({CH2CO}-[Phe(4-COOH)][NMeK]VVSN[Trp(1-CH2CO)][Phe(4-COOH)]K[Trp(5-OH)][Aib]VC-X6; lactam 2-7; thioether N-13) | 3.1
CC(C)[C@@H]1NC(=O)[C@H](C(C)C)NC(=O)[C@@H]2CCCCNC(=O)Cn3cc(c4ccccc43)C[C@H](NC(=O)[C@H](CC(N)=O)NC(=O)[C@H](CO)NC1=O)C(=O)N[C@@H](Cc1ccc(C(=O)O)cc1)C(=O)N[C@@H](CCCCN)C(=O)N[C@@H](Cc1c[nH]c3ccc(O)cc13)C(=O)NC(C)(C)C(=O)N[C@@H](C(C)C)C(=O)N[C@H](C(=O)NCCCC[C@H](NC(=O)CC[C@H](NC(=O)CC[C@H](NC(=O)CCCc1ccc(I)cc1)C(=O)O)C(=O)O)C(N)=O)CSCC(=O)N[C@@H](Cc1ccc(C(=O)O)cc1)C(=O)N2C [Compound 9] ({CH2CO}-[Phe(4-COOH)][NMeK]VVSN[Trp(1-CH2CO)][Phe(4-COOH)]K[Trp(5-OH)][Aib]VC-X10; lactam 2-7; thioether N-13) | 1.46
CC(C)[C@@H]1NC(=O)[C@H](C(C)C)NC(=O)[C@@H]2CCCCNC(=O)Cn3cc(c4ccccc43)C[C@H](NC(=O)[C@H](CC(N)=O)NC(=O)[C@H](CO)NC1=O)C(=O)N[C@@H](Cc1ccc(C(=O)O)cc1)C(=O)N[C@@H](CCCCN)C(=O)N[C@@H](Cc1c[nH]c3ccc(O)cc13)C(=O)NC(C)(C)C(=O)N[C@@H](C(C)C)C(=O)N[C@H](C(=O)NCCCC[C@H](NC(=O)COCCOCCNC(=O)COCCOCCNC(=O)CC[C@H](NC(=O)CC[C@H](NC(=O)CCCCCCCCCCCCCC(=O)O)C(=O)O)C(=O)O)C(N)=O)CSCC(=O)N[C@@H](Cc1ccc(C(=O)O)cc1)C(=O)N2C [Compound 63] ({CH2CO}-[Phe(4-COOH)][NMeK]VVSN[Trp(1-CH2CO)][Phe(4-COOH)]K[Trp(5-OH)][Aib]VC-X8; lactam 2-7; thioether N-13) | 3.7
